Data as given in patent publication US4264736A, “Antibiotic 890A10” (Merck & Co., Inc., priority 1979, dated 1981).

Assays:
[1] = test system: Vibrio percolans MB No. 2566 (res. ceph C); assay: Antibiotic spectrum profile, agar zone of inhibition; assay type: cell-based; settings: Comamonas terrigena, read-out: Inhib. Zone Diam.
[2] = test system: Bacillus subtilis ATCC 6633; assay: as above; assay type: cell-based; settings: ATCC6633, 0.015 ml of 9.5 μg/ml aqueous solution, 25° C., read-out: Inhib. Zone Diam.
[3] = test system: Aerobacter aerogenes MB No. 835; assay: as above; assay type: cell-based; settings: Klebsiella aerogenes, MBNO.835, 0.015 ml of 9.5 μg/ml aqueous solution, 25° C., read-out: Inhib. Zone Diam.
Description: (§1) The test to determine the antibiotic spectrum profiles of antibiotic 890A10 is carried out by application of a 0.015 ml. droplet of a 9.5 μg./ml. aqueous solution of the antibiotic on the surface of a 100×15 mm. petri plate containing 3 ml. of seeded nutrient agar plus 0.2% yeast extract which is incubated at 25° C.

[4] = test system: Bacillus sp. MB No. 633; assay: as above; assay type: cell-based; settings: 0.015 ml of 9.5 μg/ml aqueous solution, 25° C., read-out: Inhib. Zone Diam.
Description: as §1

[5] = test system: Serratia marcescens ATCC 890; assay: as above; assay type: cell-based; settings: ATCC890, 0.015 ml of 9.5 μg/ml aqueous solution, 25° C., read-out: Inhib. Zone Diam.
Description: as §1

[6] = test system: Escherichia coli ATCC 9637; assay: as above; assay type: cell-based; settings: ATCC9637, 0.015 ml of 9.5 μg/ml aqueous solution, 25° C., read-out: Inhib. Zone Diam.
[7] = test system: Klebsiella pneumoniae MB No. 1264; assay: as above; assay type: cell-based; settings: MBNO.1264, 0.015 ml of 9.5 μg/ml aqueous solution, 25° C., read-out: Inhib. Zone Diam.
[8] = test system: various gram-positive and gram-negative bacteria; assay: Antibacterial activity (statement); assay type: cell-based
[9] = test system: Pseudomonas aeruginosa MB No. 2824; assay: Antibiotic spectrum profile, agar zone of inhibition; assay type: cell-based; settings: MBNO.2824, 0.015 ml of 9.5 μg/ml aqueous solution, 25° C., read-out: Inhib. Zone Diam.
[10] = test system: Pseudomonas aeruginosa MB No. 979; assay: as above; assay type: cell-based; settings: MBNO.979, 0.015 ml of 9.5 μg/ml aqueous solution, 25° C., read-out: Inhib. Zone Diam.
[11] = test system: bacterial β-lactamases; assay: Inhibition of bacterial β-lactamases (statement); assay type: biochemical
[12] = test system: Alcaligenes faecalis ATCC 213; assay: Antibiotic spectrum profile, agar zone of inhibition; assay type: cell-based; settings: ATCC213, 0.015 ml of 9.5 μg/ml aqueous solution, 25° C., read-out: Inhib. Zone Diam.
[13] = test system: Escherichia coli MB No. 1418; assay: as above; assay type: cell-based; settings: MBNO.1418, 0.015 ml of 9.5 μg/ml aqueous solution, 25° C., read-out: Inhib. Zone Diam.
[14] = test system: Pseudomonas stutzeri ATCC 11607; assay: as above; assay type: cell-based; settings: Stutzerimonas stutzeri, ATCC11607, 0.015 ml of 9.5 μg/ml aqueous solution, 25° C., read-out: Inhib. Zone Diam.
[15] = test system: Erwinia atroseptica ATCC 4446; assay: as above; assay type: cell-based; settings: Pectobacterium atrosepticum, ATCC4446, 0.015 ml of 9.5 μg/ml aqueous solution, 25° C., read-out: Inhib. Zone Diam.
[16] = test system: Proteus vulgaris MB No. 2112 (episome); assay: as above; assay type: cell-based; settings: read-out: Inhib. Zone Diam.
[17] = test system: Proteus vulgaris ATCC 21100; assay: as above; assay type: cell-based; settings: ATCC21100, 0.015 ml of 9.5 μg/ml aqueous solution, 25° C., read-out: Inhib. Zone Diam.
[18] = Stability in aqueous solution under acidic conditions; assay type: physicochemical; settings: free acid form not isolated
[19] = test system: Salmonella gallinarum MB No. 1287; assay: Antibiotic spectrum profile, agar zone of inhibition; assay type: cell-based; settings: Salmonella enterica, 0.015 ml of 9.5 μg/ml aqueous solution, 25° C., read-out: Inhib. Zone Diam.

SMILES: CC(=O)NCCSC1=C(C(=O)O)N2C(=O)C(C(C)OS(=O)(=O)O)C2C1 (stereo not shown) [Antibiotic 890A10]
- zone of inhibition at 9.5 µg/mL [1]: 22 mm
- zone of inhibition at 9.5 µg/mL [2]: 30 mm
- zone of inhibition at 9.5 µg/mL [3]: 22 mm
- zone of inhibition at 9.5 µg/mL [4]: 30 mm
- zone of inhibition at 9.5 µg/mL [5]: 15 mm
- zone of inhibition at 9.5 µg/mL [6]: 17 mm
- zone of inhibition at 9.5 µg/mL [7]: 19 mm
- antibacterial activity [8]: active against various gram-positive and gram-negative bacteria
- zone of inhibition at 9.5 µg/mL [9]: 0 mm
- zone of inhibition at 9.5 µg/mL [10]: 0 mm
- inhibition of bacterial β-lactamases [11]: potent inhibitor of bacterial β-lactamases
- zone of inhibition at 9.5 µg/mL [12]: 24 mm
- zone of inhibition at 9.5 µg/mL [13]: 25 mm
- zone of inhibition at 9.5 µg/mL [14]: 0 mm
- zone of inhibition at 9.5 µg/mL [15]: 10 mm
- zone of inhibition at 9.5 µg/mL [16]: 30 mm
- zone of inhibition at 9.5 µg/mL [17]: 30 mm
- stability under acidic conditions in aqueous solution [18]: unstable
- zone of inhibition at 9.5 µg/mL [19]: 28 mm
